Assay results as given in the CheMixHub ionic liquid set.

Test: xn = mol fraction of the nth substance listed

CCCC[n+]1ccn(C)c1.F[P-](F)(F)(F)(F)F + Cc1ccccc1
101 kPa
Conditions | viscosity [mPa·s]
298.15 K, x2 = 0.05 | 172.6
300.65 K, x2 = 0.2 | 74.9
300.65 K, x2 = 0.4 | 31.2
303.15 K, x2 = 0.1 | 73.3
303.15 K, x2 = 0.3 | 39.5
305.65 K, x2 = 0.3 | 32.5
308.15 K, x2 = 0.3 | 27.6
310.65 K, x2 = 0.1 | 39.8
313.15 K, x2 = 0.4 | 14.12
318.15 K, x2 = 0.3 | 17.56
320.65 K, x2 = 0.3 | 16.21
320.65 K, x2 = 0.4 | 11.32
328.15 K, x2 = 0.05 | 27.7
330.65 K, x2 = 0.05 | 26
335.65 K, x2 = 0.4 | 8.8
338.15 K, x2 = 0.05 | 22.02

CCCCCCCC/C=C\CCCCCCCC(=O)O + Cc1ccccc1 + CC[N+](CC)(CC)CC.[Cl-]
298.2 K, 100 kPa
Conditions | viscosity [mPa·s]
x2 = 0, x3 = 0.25 | 202
x2 = 0.2, x3 = 0.2 | 39
x2 = 0.4, x3 = 0.149 | 10.8
x2 = 0.6, x3 = 0.1 | 3.19
x2 = 0.8, x3 = 0.05 | 0.91

CC[n+]1ccn(C)c1.O=S(=O)([O-])O + Cc1ncc(CO)c(CO)c1O.Cl + O
viscosity [mPa·s], 100 kPa
Conditions | 293.15 K | 298.15 K | 303.15 K | 308.15 K | 313.15 K
x2 = 0, x1 = 0.0009002 | 1.048 | 0.945 | 0.835 | 0.758 | 0.693
x2 = 0, x1 = 0.001799 | 1.067 | 0.948 | 0.855 | 0.772 | 0.702
x2 = 0, x1 = 0.002696 | 1.083 | 0.963 | 0.862 | 0.776 | 0.707
x2 = 0.000265, x1 = 0.002695 | 1.088 | 0.968 | 0.867 | 0.781 | 0.712
x2 = 0.0002728, x1 = 0.0008999 | 1.052 | 0.949 | 0.839 | 0.762 | 0.697
x2 = 0.0002827, x1 = 0.001798 | 1.072 | 0.953 | 0.86 | 0.777 | 0.707
x2 = 0.0004855, x1 = 0.0008998 | 1.056 | 0.953 | 0.843 | 0.766 | 0.701
x2 = 0.0005353, x1 = 0.002694 | 1.093 | 0.973 | 0.872 | 0.786 | 0.717
x2 = 0.0005469, x1 = 0.001798 | 1.077 | 0.958 | 0.865 | 0.782 | 0.712
x2 = 0.0008161, x1 = 0.0008994 | 1.062 | 0.959 | 0.849 | 0.772 | 0.707
x2 = 0.0008296, x1 = 0.002693 | 1.099 | 0.979 | 0.878 | 0.792 | 0.723
x2 = 0.0008311, x1 = 0.001797 | 1.082 | 0.963 | 0.87 | 0.787 | 0.717
x2 = 0.001096, x1 = 0.0008992 | 1.067 | 0.964 | 0.854 | 0.777 | 0.712
x2 = 0.001123, x1 = 0.001797 | 1.088 | 0.969 | 0.877 | 0.793 | 0.723
x2 = 0.001138, x1 = 0.002693 | 1.106 | 0.986 | 0.884 | 0.797 | 0.729
x2 = 0.001364, x1 = 0.000899 | 1.073 | 0.97 | 0.86 | 0.784 | 0.718
x2 = 0.001383, x1 = 0.001796 | 1.094 | 0.976 | 0.882 | 0.798 | 0.728
x2 = 0.001395, x1 = 0.002692 | 1.111 | 0.992 | 0.889 | 0.803 | 0.734
x2 = 0.001638, x1 = 0.0008987 | 1.078 | 0.976 | 0.866 | 0.79 | 0.724
x2 = 0.001641, x1 = 0.001796 | 1.099 | 0.981 | 0.888 | 0.805 | 0.734
x2 = 0.001656, x1 = 0.002691 | 1.117 | 0.998 | 0.896 | 0.808 | 0.739
